Source: publication PMC9518264, “Design and synthesis of novel quinazolinone-based derivatives as EGFR inhibitors with antitumor activity” (Journal of Enzyme Inhibition and Medicinal Chemistry, 2022)

Tests used:
[1] = tested on: OVCAR-3; test: NCI 60 cell line antiproliferative screening (SRB), Ovarian cancer; conditions: Homo sapiens, OVCAR-3, read-out: growth inhibition % (GI%)
[2] = tested on: SF-539; test: cells; type: cell-based; conditions: Homo sapiens, SF-539, read-out: growth inhibition % (GI%)
[3] = tested on: panel of 60 tumour cell lines; test: NCI 60 cell line antiproliferative screening (SRB), whole panel or subpanels (means, ranges, words); type: cell-based, human; conditions: 10 μM; for inhibition at 10 µM: Homo sapiens, 60 cell, mean over the cell line panel, read-out: Mean growth inhibition % (mean GI%)
[4] = tested on: RPMI-8226; test: cells; type: cell-based; conditions: Homo sapiens, RPMI-8226, read-out: growth inhibition % (GI%)
[5] = tested on: SR; test: cells; type: cell-based; conditions: Homo sapiens, read-out: growth inhibition % (GI%)
[6] = tested on: MDA-MB-231/ATCC; test: NCI 60 cell line antiproliferative screening (SRB), Breast cancer; type: cell-based; conditions: Homo sapiens, MDA-MB-231, read-out: growth inhibition % (GI%)
[7] = tested on: SK-MEL-5; test: cells; type: cell-based; conditions: Homo sapiens, SK-MEL-5, read-out: growth inhibition % (GI%)
[8] = tested on: COLO-205; test: cells; type: cell-based; conditions: Homo sapiens, COLO 205, read-out: growth inhibition % (GI%)
[9] = tested on: A498; test: cells; type: cell-based; conditions: Homo sapiens, A498, read-out: growth inhibition % (GI%)
[10] = tested on: NCI-H522; test: cells; type: cell-based; conditions: Homo sapiens, NCI-H522, read-out: growth inhibition % (GI%)
[11] = tested on: K-562; test: cells; type: cell-based; conditions: Homo sapiens, K562, read-out: growth inhibition % (GI%)
[12] = tested on: KM12; test: cells; type: cell-based; conditions: Homo sapiens, KM12, read-out: growth inhibition % (GI%)
[13] = tested on: SNB-75; test: cells; type: cell-based; conditions: Homo sapiens, SNB-75, read-out: growth inhibition % (GI%)
[14] = tested on: CCRF-CEM; test: cells; type: cell-based; conditions: Homo sapiens, read-out: growth inhibition % (GI%)
[15] = tested on: NCI/ADR-RES; test: cells; type: cell-based; conditions: Homo sapiens, read-out: growth inhibition % (GI%)
[16] = tested on: BT-549; test: cells; type: cell-based; conditions: Homo sapiens, BT-549, read-out: growth inhibition % (GI%)
[17] = tested on: A549/ATCC; test: cells; type: cell-based; conditions: Homo sapiens, A549, read-out: growth inhibition % (GI%)
[18] = tested on: MALME-3M; test: cells; type: cell-based; conditions: Homo sapiens, Malme-3M, read-out: growth inhibition % (GI%)
[19] = tested on: U251; test: cells; type: cell-based; conditions: Homo sapiens, U-251, read-out: growth inhibition % (GI%)
[20] = tested on: IGROV1; test: cells; type: cell-based; conditions: Homo sapiens, IGROV-1, read-out: growth inhibition % (GI%)
[21] = tested on: HOP-62; test: cells; type: cell-based; conditions: Homo sapiens, HOP-62, read-out: growth inhibition % (GI%)
[22] = tested on: NCI-H226; test: cells; type: cell-based; conditions: Homo sapiens, NCI-H226, read-out: growth inhibition % (GI%)
[23] = tested on: SF-268; test: cells; type: cell-based; conditions: Homo sapiens, SF-268, read-out: growth inhibition % (GI%)
[24] = tested on: TK-10; test: cells; type: cell-based; conditions: Homo sapiens, TK-10, read-out: growth inhibition % (GI%)
[25] = tested on: SK-MEL-28; test: cells; type: cell-based; conditions: Homo sapiens, SK-MEL-28, read-out: growth inhibition % (GI%)
[26] = tested on: SW-620; test: cells; type: cell-based; conditions: Homo sapiens, SW-620, read-out: growth inhibition % (GI%)
[27] = tested on: LOX IMIV; test: cells; type: cell-based; conditions: Homo sapiens, 60 cell, read-out: growth inhibition % (GI%)
[28] = tested on: UACC-257; test: cells; type: cell-based; conditions: Homo sapiens, UACC-257, read-out: growth inhibition % (GI%)
[29] = tested on: MCF7; test: cells; type: cell-based; conditions: Homo sapiens, MCF7, read-out: growth inhibition % (GI%)
[30] = tested on: HOP-92; test: cells; type: cell-based; conditions: Homo sapiens, HOP-92, read-out: growth inhibition % (GI%)
[31] = tested on: HS 578T; test: cells; type: cell-based; conditions: Homo sapiens, Hs-578T, read-out: growth inhibition % (GI%)
[32] = tested on: HCT-15; test: cells; type: cell-based; conditions: Homo sapiens, HCT-15, read-out: growth inhibition % (GI%)
[33] = tested on: NCI-H322M; test: cells; type: cell-based; conditions: Homo sapiens, read-out: growth inhibition % (GI%)
[34] = tested on: OVCAR-5; test: cells; type: cell-based; conditions: Homo sapiens, OVCAR-5, read-out: growth inhibition % (GI%)
[35] = tested on: HCT-116; test: cells; type: cell-based; conditions: Homo sapiens, HCT-116, read-out: growth inhibition % (GI%)
[36] = tested on: ACHN; test: cells; type: cell-based; conditions: Homo sapiens, read-out: growth inhibition % (GI%)
[37] = tested on: HCC-2998; test: cells; type: cell-based; conditions: Homo sapiens, HCC 2998, read-out: growth inhibition % (GI%)
[38] = tested on: T-47D; test: cells; type: cell-based; conditions: Homo sapiens, T47D, read-out: growth inhibition % (GI%)
[39] = tested on: SK-OV-3; test: cells; type: cell-based; conditions: Homo sapiens, SK-OV-3, read-out: growth inhibition % (GI%)
[40] = tested on: SK-MEL-2; test: cells; type: cell-based; conditions: Homo sapiens, SK-MEL-2, read-out: growth inhibition % (GI%)
[41] = tested on: 786-0; test: cells; type: cell-based; conditions: Homo sapiens, 786-0, read-out: growth inhibition % (GI%)
[42] = tested on: OVCAR-4; test: cells; type: cell-based; conditions: Homo sapiens, OVCAR-4, read-out: growth inhibition % (GI%)
[43] = tested on: MOLT-4; test: cells; type: cell-based; conditions: Homo sapiens, MOLT-4, read-out: growth inhibition % (GI%)
[44] = tested on: EKVX; test: cells; type: cell-based; conditions: Homo sapiens, read-out: growth inhibition % (GI%)
[45] = tested on: SNB-19; test: cells; type: cell-based; conditions: Homo sapiens, SNB-19, read-out: growth inhibition % (GI%)
[46] = tested on: DU-145; test: cells; type: cell-based; conditions: Homo sapiens, DU-145, read-out: growth inhibition % (GI%)

Question: Which inhibition at 10 µM [1] does the source give for `O=C(CSc1nc2ccccc2c(=O)n1-c1ccccc1)NN=Cc1ccc(Oc2ccc(Cl)cc2)cc1` [6a, N'-(4–(4-chlorophenoxy)benzylidene)-2-((4-oxo-3-phenyl-3,4-dihydroquinazolin-2-yl)thio)acetohydrazide] here?
Answer: < 15%

Question: What about the inhibition at 10 µM [2] of the same compound?
Answer: 31.5%

Question: What about the “GI% range over a subset of cell lines” value ([3]; subset of cell lines whose number is stated in the sentence) of the same compound?
Answer: 67.86% to 30.09

Question: And the inhibition at 10 µM [3]?
Answer: 37.3%

Question: And the inhibition at 10 µM [4]?
Answer: 26.8%

Question: And the inhibition at 10 µM [5]?
Answer: 29.7%

Question: And the inhibition at 10 µM [6]?
Answer: 50.8%

Question: What about the inhibition at 10 µM [7] of the same compound?
Answer: 28.8%

Question: And the inhibition at 10 µM [8]?
Answer: 50.8%

Question: What about the inhibition at 10 µM [9] of the same compound?
Answer: 34.3%

Question: And the inhibition at 10 µM [10]?
Answer: 50.4%

Question: And the inhibition at 10 µM [11]?
Answer: 38.8%

Question: And the inhibition at 10 µM [12]?
Answer: 16.3%

Question: And the inhibition at 10 µM [13]?
Answer: 39.9%

Question: And the inhibition at 10 µM [14]?
Answer: 49.6%

Question: What about the inhibition at 10 µM [15] of the same compound?
Answer: 47.3%

Question: What about the inhibition at 10 µM [16] of the same compound?
Answer: 30.1%

Question: What about the inhibition at 10 µM [17] of the same compound?
Answer: 58.3%

Question: What about the inhibition at 10 µM [18] of the same compound?
Answer: 48.7%

Question: What about the inhibition at 10 µM [19] of the same compound?
Answer: 84.8%

Question: What about the inhibition at 10 µM [20] of the same compound?
Answer: 50.9%

Question: What about the inhibition at 10 µM [21] of the same compound?
Answer: 40.9%

Question: And the inhibition at 10 µM [22]?
Answer: 27.9%

Question: And the inhibition at 10 µM [23]?
Answer: < 15%

Question: What about the inhibition at 10 µM [24] of the same compound?
Answer: < 15%

Question: And the inhibition at 10 µM [25]?
Answer: 37.6%

Question: What about the inhibition at 10 µM [26] of the same compound?
Answer: 56.9%

Question: And the inhibition at 10 µM [27]?
Answer: 86%

Question: And the inhibition at 10 µM [28]?
Answer: < 15%

Question: What about the inhibition at 10 µM [29] of the same compound?
Answer: 35.5%

Question: What about the inhibition at 10 µM [30] of the same compound?
Answer: 33.3%

Question: What about the inhibition at 10 µM [31] of the same compound?
Answer: 41.1%

Question: What about the inhibition at 10 µM [32] of the same compound?
Answer: 39.2%

Question: What about the inhibition at 10 µM [33] of the same compound?
Answer: 15.5%

Question: What about the inhibition at 10 µM [34] of the same compound?
Answer: 18.6%

Question: And the inhibition at 10 µM [35]?
Answer: 94.4%

Question: What about the inhibition at 10 µM [36] of the same compound?
Answer: 25.5%

Question: What about the inhibition at 10 µM [37] of the same compound?
Answer: < 15%

Question: And the inhibition at 10 µM [38]?
Answer: 17.5%

Question: And the inhibition at 10 µM [39]?
Answer: 16.8%

Question: And the inhibition at 10 µM [40]?
Answer: 13.1%

Question: And the inhibition at 10 µM [41]?
Answer: 46.8%

Question: What about the inhibition at 10 µM [42] of the same compound?
Answer: 26.2%

Question: What about the inhibition at 10 µM [43] of the same compound?
Answer: 41.3%

Question: And the inhibition at 10 µM [44]?
Answer: 41%

Question: And the inhibition at 10 µM [45]?
Answer: 66.8%

Question: What about the inhibition at 10 µM [46] of the same compound?
Answer: 61.6%

Question: Which results are given for `O=C(CSc1nc2ccccc2c(=O)n1-c1ccccc1)NN=Cc1ccc(Oc2ccc(Br)cc2)cc1` [6b, N'-(4–(4-bromophenoxy)benzylidene)-2-((4-oxo-3-phenyl-3,4-dihydroquinazolin-2-yl)thio) acetohydrazide]?
Answer: inhibition at 10 µM [1]: < 15%; inhibition at 10 µM [2]: 31.3%; inhibition at 10 µM [3]: 34.8%; inhibition at 10 µM [4]: 31.7%; inhibition at 10 µM [5]: 26.6%; inhibition at 10 µM [6]: 49.1%; inhibition at 10 µM [7]: 40.9%; inhibition at 10 µM [8]: 55.6%; inhibition at 10 µM [9]: 17.7%; inhibition at 10 µM [10]: 51.5%; inhibition at 10 µM [11]: 37.5%; inhibition at 10 µM [12]: 23.7%; inhibition at 10 µM [13]: 42.2%; inhibition at 10 µM [14]: 43.1%; inhibition at 10 µM [15]: 44.8%; inhibition at 10 µM [16]: 26.9%; inhibition at 10 µM [17]: 57.8%; inhibition at 10 µM [18]: 45.1%; inhibition at 10 µM [19]: 78.5%; inhibition at 10 µM [20]: 34.5%; inhibition at 10 µM [21]: 36.1%; inhibition at 10 µM [22]: 22.4%; inhibition at 10 µM [23]: 15.7%; inhibition at 10 µM [24]: < 15%; inhibition at 10 µM [25]: 29.1%; inhibition at 10 µM [26]: 70.4%; inhibition at 10 µM [27]: 79%; inhibition at 10 µM [28]: < 15%; inhibition at 10 µM [29]: 31.1%; inhibition at 10 µM [30]: 27%; inhibition at 10 µM [31]: 39.2%; inhibition at 10 µM [32]: 36.3%; inhibition at 10 µM [33]: < 15%; inhibition at 10 µM [34]: < 15%; inhibition at 10 µM [35]: 92.2%; inhibition at 10 µM [36]: < 15%; inhibition at 10 µM [37]: < 15%; inhibition at 10 µM [38]: 17.6%; inhibition at 10 µM [39]: 15.5%; inhibition at 10 µM [40]: < 15%; inhibition at 10 µM [41]: 54%; inhibition at 10 µM [42]: 18.3%; inhibition at 10 µM [43]: 44.5%; inhibition at 10 µM [44]: 39.3%; inhibition at 10 µM [45]: 60.1%; inhibition at 10 µM [46]: 61.7%
